Data set [1] is described as follows: Renal excretion of Compound 1 in monkey. Type of data set: in vivo, male cynomolgus monkeys. The note with it: IV 1 mg/kg. How it is done: (§1) An important factor for insuring appropriate long term drug dosing and correct steady-state drug concentrations in patients is drug clearance. In general, decreased drug clearance results in higher drug concentrations and greater drug effects. In order to understand renal clearance of Compound 1, the percent of administered dose recovered in urine following a single IV dose was assessed in three animal species. Three separate studies in male Sprague Dawley rats, male beagle dogs and male cynomolgus monkeys, respectively, were conducted and the procedure and experimental results are described below.
Male cynomolgus monkeys (N=3), having body weights of 4.42-5.81 kg, received an IV dose of compound 1 at 1 mg/kg. Compound 1 was dissolved in PEG-200:ethanol:water (40:10:50) and filtered through a […] polyvinyl difluoride (PVDF) syringe filter prior to administration. The monkeys had access to food ad libitum before and after administration of Compound 1. Urine samples were collected on dry ice during the collection interval periods, the sample volumes were recorded, and the urine acidified with acetic acid to a final concentration of approximately 2% acetic acid. Aliquots were obtained and frozen (−70° C.) prior to bioanalysis.
Monkey urine concentrations of Compound 1 were determined by LC/MS/MS. Urine samples were thawed and diluted in plasma K2EDTA (1:4). […]

Data set [2] in a line: Renal excretion of Compound 1 in dog. To be noted: for Urinary Excretion (approximate % of administered dose excreted in urine) Mean: 0-24 hrs. Format: in vivo, male beagle dogs. As for the experimental part:
as §1
Male beagle dogs (N=6, two groups of 3), having body weights of 9.04-10.2 kg and 10.8-11.5 kg, received an IV dose of Compound 1 at 0.1 mg/kg (Group I) and 1.255 mg/kg (Group II) as part of a dosing cassette. Compound 1 was dissolved in PEG-200:ethanol:water (40:10:50) and filtered through a […] polyvinyl difluoride (PVDF) syringe filter prior to administration. The dogs had access to food ad libitum before and after administration of Compound 1. Urine samples were collected on cold packs into pre-weighed containers that were prefilled with 0.5 mL glacial acetic acid. The samples were weighed again and additional glacial acetic acid was added if needed to a final concentration of 2%. The samples were frozen and stored (−80° C.) prior to bioanalysis.
Dog urine concentrations of Compound 1 were determined by LC/MS/MS. Urine study samples (diluted in plasma K2EDTA(1:9)) were vortexed and 25 μL was placed in a 96-well plate. The samples were extracted with 100 μL in acetonitrile with internal standard Glyburide. The extract was centrifuged for 5 minutes at 3100 RPM and 75 μL of supernatant was transferred and mixed with 150 μL water. Samples (12 μL) were injected on a Waters Acquity UPLC BEH C18 (50×2.1 mm, 1.7 μm) column with a flow rate of 0.9 mL/min. Mobile phase A consisted of 95:5:0.1 (v:v:v) water:acetonitrile:formic acid and mobile phase B consisted of 50:50:0.1 (v:v:v) methanol:acetonitrile:formic acid. The gradient elution started with 35% to 90% B from 0.2 to 1.6 min, held at 95% from 1.7 to 2.2 min., followed by a step of 95% to 35% B from 2.20 to 2.30 min. Compound 1 assay range was 0.000100 to 1.00 μg/mL.
The mean amount of urine excreted over a collection period of 24 hrs and the approximate % of administered dose excreted in urine is reported in the table below.

The nature of data set [3]: IV/PO pharmacokinetic study in rats. Type of data set: in vivo, male Sprague-Dawley rats. Details: AUC(0-t): concentration or dose not given beside the values. The note with it: rat; for AUC(0-t): read-out: AUClast Mean. How it is done: Each rat or dog PK study began with formulation of the test compound. Appropriate masses of each test compound were added into a volume of vehicle (e.g. 5% sodium bicarbonate, 5% dextrose in H2O) such that the final concentration of each compound was appropriate to be dosed at 2 mL/kg. Although a homogenous suspension were acceptable for oral dosing, intravenous dosing solutions were sterile-filtered (0.2 μm) prior to dosing to ensure no particulates were administered.
In the rat study, pre-cannulated male Sprague-Dawley rats (3 per route) between 8 and 10 weeks of age were obtained from Harlan Laboratories (Indianapolis, Ind.). Rats received either a single oral gavage or a single intravenous (via lateral tail vein) dose of the dosing solution. The final dose was typically 0.5-3 mg/kg. Serial blood samples were harvested via the cannula implanted in the jugular vein at 3 minutes, 15 minutes, 30 minutes, 1 hour, 2 hours, 4 hours, 6 hours, and 24 hours post-dose. Sampling was performed either manually or using automated blood samplers. Samples were collected into microtainer tubes containing EDTA as the anticoagulant and were processed to plasma by refrigerated centrifugation.
Plasma samples were extracted with 3 volumes of MeCN containing a suitable internal standard. Extracts were reconstituted into 3 volumes of water containing 1% formic acid, and analyzed via HPLC-coupled MS/MS. Plasma concentration-time data were analyzed using the Phoenix software (Pharsight Corp., St. Louis, Mo.) to calculate pharmacokinetic parameters.
Plasma clearance was determined from the intravenous arm of the study, and represents the rate at which plasma is cleared of drug. It is equal to the dose divided by the area under the plasma concentration-time curve. In addition to plasma clearance, it is also essential for an orally administered drug to reach efficacious systemic levels following oral delivery. Oral bioavailability is a measurement of plasma exposures following oral administration relative to exposures following intravenous administration.

Read-outs that look alike come from different tables or passages of the source.

By bioavailability is commonly meant dose-corrected exposure relative to a reference, in per cent.

As to `Cc1cnc(C(=O)N[C@H](Cc2ccc(-c3cc(Cl)ccc3F)cc2)C[C@@H](O)C(=O)O)o1` [Compound 1, (2R,4R)-5-(5′-Chloro-2′-fluorobiphenyl-4-yl)-2-hydroxy-4-[(5-methyloxazole-2-carbonyl)amino]pentanoic Acid], the results for the “Amount of Compound 1 Excreted in Urine over Collection Period (0-24 hrs) Mean” value in data set [1], in data set [2] (IV 0.1 mg/kg) and in data set [2] (IV 1.26 mg/kg) were 157 µg, 15.8 µg and 103 µg, respectively. Moreover, the “Urinary Excretion (approximate % of administered dose excreted in urine) Mean” value is 0.92% in data set [2] (IV 0.1 mg/kg) and 1.67% in data set [2] (IV 1.26 mg/kg). Besides, the AUC(0-t) was 610 ng·h/mL in data set [3] (male, Sprague-Dawley, plasma, IV) and 400 ng·h/mL in data set [3] (male, Sprague-Dawley, plasma, PO). The same molecule gave a bioavailability in data set [3] (male, Sprague-Dawley, plasma, PO vs IV AUClast) of 67%. The “CLlast Mean” value in data set [3] (IV, dose divided by AUClast) amounted to 13.8 mL/min/kg.

These data come from patent publication US11642332B2, “(2R,4R)-5-(5′-chloro-2′-fluorobiphenyl-4-yl)-2-hydroxy-4-[(5-methyloxazole-2-carbonyl)amino]pentanoic acid” (THERAVANCE BIOPHARMA R&D IP, LLC, priority 2015, dated 2023).
